Active and inactive are the calls of the source. The calls are words filed in the database; no cut-off is given here.
Tests used:
Cortical neurone [1] = assay: Antialzheimer activity in amyloid beta (25 to 35)-treated Sprague-Dawley rat cortical neurons assessed as dendrite extension activity at 10 uM after 4 days by fluorescence microscopic analysis; type: functional
[2] = Cytotoxicity against Sprague-Dawley rat cortical neurons assessed as cell viability after 48 hrs by CellTiter-Glo luminescent assay; details: cortical neurone
Cortical neurone [3] = assay: Antialzheimer activity in amyloid beta (25 to 35)-treated Sprague-Dawley rat cortical neurons assessed as dendrite extension activity at 1 uM after 4 days by fluorescence microscopic analysis; type: functional
[4] = Cytotoxicity against Sprague-Dawley rat cortical neurons assessed as cell viability at 1 to 10 uM after 48 hrs by CellTiter-Glo luminescent assay; details: cortical neurone

SMILES	Activity (Cortical neurone [1])	Activity [2]	Activity (Cortical neurone [3])	Activity [4]
C#Cc1cc2c(cc1O)[C@]1(C#N)CC=CC3=CO[C@H](C2)[C@@H]31	Active	Dose-dependent effect	inactive	–
N#C[C@]12CC[C@H](O)C3=CO[C@H](Cc4ccc(O)cc41)[C@@H]32	–	Dose-dependent effect	–	–
N#C[C@]12CCC3(OCCO3)C3=CO[C@H](Cc4cc(I)c(O)cc41)[C@@H]32	–	Dose-dependent effect	–	–
N#C[C@]12CC=CC3=CO[C@H](Cc4ccc(O)cc41)[C@@H]32	–	Dose-dependent effect	–	–
N#C[C@]12CCC[C@@H]3CO[C@H](Cc4ccc(O)cc41)[C@@H]32	Active	Dose-dependent effect	inactive	–
N#C[C@]12CC[C@H](O)[C@@H]3CO[C@H](Cc4ccc(O)cc41)[C@@H]32	–	Dose-dependent effect	–	–
C#Cc1cc2c(cc1O)[C@]1(C#N)CCC3(OCCO3)C3=CO[C@H](C2)[C@@H]31	Active	Dose-dependent effect	inactive	–
CCOc1cc2c(cc1O)[C@]1(C#N)CCC3(OCCO3)C3=CO[C@H](C2)[C@@H]31	–	–	Active	–
N#C[C@]12CCC3(OCCO3)C3=CO[C@H](Cc4cc(-c5ccccc5)c(O)cc41)[C@@H]32	–	Dose-dependent effect	–	–
CCCCCCCCC/C=C/c1cc2c(cc1O)[C@]1(C#N)CCC3(OCCO3)C3=CO[C@H](C2)[C@@H]31	inactive	Dose-dependent effect	Active	–
N#C[C@]12CC=CC3=CO[C@H](Cc4cc(-c5ccccc5)c(O)cc41)[C@@H]32	–	Dose-dependent effect	–	–
N#C[C@]12CCC3(OCCO3)C3=CO[C@H](Cc4cc(Sc5ccccc5)c(O)cc41)[C@@H]32	–	–	Active	–
N#C[C@]12CCC3(OCCO3)[C@@H]3CO[C@H](Cc4ccc(O)cc41)[C@@H]32	–	–	Active	–
N#C[C@]12CCC3(OCCO3)C3=CO[C@H](Cc4ccc(O)cc41)[C@@H]32	–	–	–	Non-toxic
N#C[C@]12CCC3(OCCO3)C3=CO[C@H](Cc4cc(O)c(O)cc41)[C@@H]32	–	–	inactive	–
N#C[C@]12CCC3(OCCO3)C3=CO[C@H](Cc4cc(C#CCCO)c(O)cc41)[C@@H]32	–	Dose-dependent effect	–	–
Oc1ccc2c(c1)[C@@H]1CCC3(OCCO3)C3=CO[C@H](C2)[C@@H]31	–	–	inactive	–
N#C[C@]12CC=CC3=CO[C@H](Cc4cc(C#CCCO)c(O)cc41)[C@@H]32	inactive	Dose-dependent effect	Active	–
